Experimental data taken from ChEMBL document CHEMBL1909046, “DrugMatrix in vitro pharmacology data”.

How the values were obtained:
Cytochrome P450 2C19 = Cytochrome P450 2C19 (Homo sapiens, UniProt P33261); details: bti-tn-5b1-4; further: in other assays of this panel Not Active means under 50% inhibition at 10 µM
Cytochrome P450 2E1 = Cytochrome P450 2E1 (Homo sapiens, UniProt P05181); details: bti-tn-5b1-4; further: in other assays of this panel Not Active means under 50% inhibition at 10 µM
[1] = DRUGMATRIX: Purinergic P2X radioligand binding (ligand: [3H] alpha, beta-Methylene-ATP); type: cell membranes, Oryctolagus cuniculus, New Zealand albino, Urinary bladder, Membrane; details: Not Active = under 50% inhibition at 10 µM
[2] = DRUGMATRIX: Potassium Channel [KATP] radioligand binding (ligand: [3H] Glyburide); type: cell membranes, Membrane; details: hit-t15; Not Active = under 50% inhibition at 10 µM
[3] = biological target: 5-hydroxytryptamine receptor 4 (Cavia porcellus, UniProt O70528); type: cell membranes, Dunkin-Hartley, Striatum, Membrane; further: in other assays of this panel Not Active means under 50% inhibition at 10 µM
Melanocortin receptor 3 = Melanocortin receptor 3 (Homo sapiens, UniProt P41968); type: cell membranes, HEK293, Membrane; details: hek293; further: in other assays of this panel Not Active means under 50% inhibition at 10 µM
D(3) dopamine receptor = D(3) dopamine receptor (Homo sapiens, UniProt P35462); assay: DRUGMATRIX: Dopamine D3 radioligand binding (ligand: [3H] Spiperone); type: cell membranes, CHO, Membrane
Chain of D(3) dopamine receptor (P35462 whole entry): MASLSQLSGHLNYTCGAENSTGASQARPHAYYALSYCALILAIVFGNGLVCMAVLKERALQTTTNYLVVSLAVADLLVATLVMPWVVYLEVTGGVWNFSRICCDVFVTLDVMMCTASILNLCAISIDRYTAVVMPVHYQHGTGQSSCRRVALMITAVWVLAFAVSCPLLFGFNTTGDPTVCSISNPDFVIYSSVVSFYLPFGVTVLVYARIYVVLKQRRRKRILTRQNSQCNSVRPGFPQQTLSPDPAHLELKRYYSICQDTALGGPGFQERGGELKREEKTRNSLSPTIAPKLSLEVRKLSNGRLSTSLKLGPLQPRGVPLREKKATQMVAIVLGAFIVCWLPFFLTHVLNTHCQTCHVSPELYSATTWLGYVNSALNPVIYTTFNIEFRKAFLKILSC

Chain of Melanocortin receptor 3 (P41968 whole entry): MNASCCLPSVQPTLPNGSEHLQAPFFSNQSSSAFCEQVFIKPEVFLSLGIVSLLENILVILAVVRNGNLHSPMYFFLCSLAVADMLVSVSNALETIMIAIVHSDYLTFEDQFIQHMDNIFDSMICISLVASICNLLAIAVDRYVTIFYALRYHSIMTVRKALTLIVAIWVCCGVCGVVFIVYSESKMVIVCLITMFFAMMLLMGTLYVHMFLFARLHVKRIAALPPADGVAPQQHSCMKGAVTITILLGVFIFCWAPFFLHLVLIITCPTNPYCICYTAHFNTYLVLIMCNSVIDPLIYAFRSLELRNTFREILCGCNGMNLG
Chain of 5-hydroxytryptamine receptor 4 (O70528 whole entry): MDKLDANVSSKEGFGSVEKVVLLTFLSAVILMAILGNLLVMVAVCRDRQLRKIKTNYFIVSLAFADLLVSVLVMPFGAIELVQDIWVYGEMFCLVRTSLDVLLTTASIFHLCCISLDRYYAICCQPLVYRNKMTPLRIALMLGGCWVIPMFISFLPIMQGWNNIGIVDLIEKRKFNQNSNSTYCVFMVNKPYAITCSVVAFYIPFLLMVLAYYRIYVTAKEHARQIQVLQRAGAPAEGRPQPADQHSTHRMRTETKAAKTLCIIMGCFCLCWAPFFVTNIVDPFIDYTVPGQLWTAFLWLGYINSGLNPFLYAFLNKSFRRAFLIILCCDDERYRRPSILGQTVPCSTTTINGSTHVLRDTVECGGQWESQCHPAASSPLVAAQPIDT
Chain of Cytochrome P450 2E1 (P05181 whole entry): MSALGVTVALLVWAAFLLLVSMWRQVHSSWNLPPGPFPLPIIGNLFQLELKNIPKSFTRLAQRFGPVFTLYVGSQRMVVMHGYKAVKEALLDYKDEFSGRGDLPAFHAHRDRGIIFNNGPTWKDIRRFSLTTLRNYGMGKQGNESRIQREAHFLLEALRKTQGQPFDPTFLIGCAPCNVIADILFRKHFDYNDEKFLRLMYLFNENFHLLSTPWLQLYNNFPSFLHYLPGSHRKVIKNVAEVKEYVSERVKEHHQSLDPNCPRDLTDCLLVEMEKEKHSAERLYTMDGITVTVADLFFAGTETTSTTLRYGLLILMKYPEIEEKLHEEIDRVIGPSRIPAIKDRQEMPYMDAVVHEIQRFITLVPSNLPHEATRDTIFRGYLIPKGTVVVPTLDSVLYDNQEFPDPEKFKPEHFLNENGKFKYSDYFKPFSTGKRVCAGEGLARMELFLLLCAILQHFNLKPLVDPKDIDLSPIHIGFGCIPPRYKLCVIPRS
Chain of Cytochrome P450 2C19 (P33261 whole entry): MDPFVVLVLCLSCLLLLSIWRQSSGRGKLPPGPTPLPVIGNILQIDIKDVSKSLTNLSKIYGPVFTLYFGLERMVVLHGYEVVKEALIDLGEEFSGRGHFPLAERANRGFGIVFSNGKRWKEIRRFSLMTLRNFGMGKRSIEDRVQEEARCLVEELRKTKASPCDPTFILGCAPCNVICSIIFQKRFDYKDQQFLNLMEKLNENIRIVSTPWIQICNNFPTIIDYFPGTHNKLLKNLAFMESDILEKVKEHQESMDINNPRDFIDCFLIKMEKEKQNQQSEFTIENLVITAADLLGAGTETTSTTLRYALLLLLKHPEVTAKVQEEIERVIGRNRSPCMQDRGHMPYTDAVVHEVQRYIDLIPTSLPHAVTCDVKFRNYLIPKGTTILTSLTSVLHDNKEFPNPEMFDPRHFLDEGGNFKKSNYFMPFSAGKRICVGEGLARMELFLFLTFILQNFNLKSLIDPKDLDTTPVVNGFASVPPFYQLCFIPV

Compound	IC50 (Cytochrome P450 2C19)	Ki (Cytochrome P450 2C19)	IC50 (Cytochrome P450 2E1)	Ki (Cytochrome P450 2E1)	IC50 [1]	Ki [1]	IC50 [2]	Ki [2]	IC50 [3]	IC50 (Melanocortin receptor 3)	IC50 (D(3) dopamine receptor; cho)	IC50 ([3]; read-out: IC50) [nM]	Ki ([3]; read-out: Ki) [nM]	IC50 (D(3) dopamine receptor; read-out: IC50) [nM]	Ki (D(3) dopamine receptor; read-out: Ki) [nM]	Ki [3]	Ki (Melanocortin receptor 3)	Ki (D(3) dopamine receptor; cho)
CC12CCC(CC1)C(C)(C)O2 [EUCALYPTOL]	Not Active	Not Active	Not Active	Not Active	Not Active	Not Active	Not Active	Not Active	Not Active	Not Active	Not Active							
CC(=O)Nc1ccc2c(c1)Cc1ccccc1-2 [2-ACETYLAMINOFLUORENE]	Not Active	Not Active	Not Active	Not Active	Not Active	Not Active	Not Active	Not Active	Not Active	Not Active	Not Active							
CCN1C[C@]2(COC)[C@H](O)C[C@H](OC)[C@@]34[C@@H]5C[C@@]6(O)[C@H](OC(=O)c7ccccc7)[C@@H]5[C@@](OC(C)=O)([C@@H]([C@H](OC)[C@H]23)[C@@H]14)[C@@H](O)[C@@H]6OC [ACONITINE]	Not Active	Not Active	Not Active	Not Active	Not Active	Not Active	Not Active	Not Active	Not Active	Not Active	Not Active							
COc1ccccc1OCCNCC(O)COc1cccc2[nH]c3ccccc3c12 (configuration not stated) [CARVEDILOL]	Not Active	Not Active	Not Active	Not Active	Not Active	Not Active	Not Active	Not Active		Not Active		1090	181	577	196			
CC(N)Cc1c[nH]c2ccc(OCc3cccs3)cc12 (configuration not stated) [BW-723C86]	Not Active	Not Active	Not Active	Not Active	Not Active	Not Active	Not Active	Not Active	Not Active	Not Active	Not Active							
C=C(Cl)Cl [1,1-DICHLOROETHENE]	Not Active	Not Active	Not Active	Not Active	Not Active	Not Active	Not Active	Not Active	Not Active	Not Active	Not Active							
Nc1ccc(Cc2ccc(N)cc2)cc1	Not Active	Not Active	Not Active	Not Active	Not Active	Not Active	Not Active	Not Active	Not Active	Not Active	Not Active							
Nc1nc(N)c2nc(CNc3ccc(C(=O)N[C@@H](CCC(=O)O)C(=O)O)cc3)cnc2n1 [AMINOPTERIN]	Not Active	Not Active	Not Active	Not Active	Not Active	Not Active	Not Active	Not Active	Not Active	Not Active	Not Active							
COPPER(II) OXIDE	Not Active	Not Active	Not Active	Not Active	Not Active	Not Active	Not Active	Not Active	Not Active	Not Active	Not Active					Not Active	Not Active	Not Active
CN(CCOc1ccc(C[C@H](Nc2ccccc2C(=O)c2ccccc2)C(=O)O)cc1)c1ccccn1	Not Active	Not Active	Not Active	Not Active	Not Active	Not Active	Not Active	Not Active	Not Active	Not Active	Not Active							
ClC1=C(Cl)[C@]2(Cl)[C@@H]3[C@@H]4C[C@@H]([C@H]5O[C@@H]45)[C@@H]3[C@@]1(Cl)C2(Cl)Cl [DIELDRIN]	Not Active	Not Active	Not Active	Not Active	Not Active	Not Active	Not Active	Not Active	Not Active	Not Active	Not Active							
CCN1CCN(c2cc3c(cc2F)c(=O)c(C(=O)O)cn3C2CC2)CC1 [ENROFLOXACIN]	Not Active	Not Active	Not Active	Not Active	Not Active	Not Active	Not Active	Not Active	Not Active	Not Active	Not Active							
OC[C@H]1O[C@@H]2O[C@H]3[C@H](O)[C@@H](O)[C@@H](O[C@H]4[C@H](O)[C@@H](O)[C@@H](O[C@H]5[C@H](O)[C@@H](O)[C@@H](O[C@H]6[C@H](O)[C@@H](O)[C@@H](O[C@H]7[C@H](O)[C@@H](O)[C@@H](O[C@H]8[C@H](O)[C@@H](O)[C@@H](O[C@H]1[C@H](O)[C@H]2O)O[C@@H]8CO)O[C@@H]7CO)O[C@@H]6CO)O[C@@H]5CO)O[C@@H]4CO)O[C@@H]3CO [BETADEX]	Not Active	Not Active	Not Active	Not Active	Not Active	Not Active	Not Active	Not Active	Not Active	Not Active	Not Active							
c1ccc(Cn2ccnc2)cc1	Not Active	Not Active	Not Active	Not Active	Not Active	Not Active	Not Active	Not Active	Not Active	Not Active	Not Active							
C=CCN1CC[C@]23c4c5ccc(O)c4O[C@H]2/C(=N/N=C2\CC[C@@]4(O)[C@H]6Cc7ccc(O)c8c7[C@@]4(CCN6CC=C)[C@H]2O8)CC[C@@]3(O)[C@H]1C5 [NALOXONAZINE]	Not Active	Not Active	Not Active	Not Active	Not Active	Not Active	Not Active	Not Active	Not Active	Not Active	Not Active							
CCCCCCNC(=O)n1cc(F)c(=O)[nH]c1=O [CARMOFUR]	Not Active	Not Active	Not Active	Not Active	Not Active	Not Active	Not Active	Not Active	Not Active	Not Active	Not Active							
OC[C@H]1O[C@@H]2O[C@H]3[C@H](O)[C@@H](O)[C@@H](O[C@H]4[C@H](O)[C@@H](O)[C@@H](O[C@H]5[C@H](O)[C@@H](O)[C@@H](O[C@H]6[C@H](O)[C@@H](O)[C@@H](O[C@H]7[C@H](O)[C@@H](O)[C@@H](O[C@H]1[C@H](O)[C@H]2O)O[C@@H]7CO)O[C@@H]6CO)O[C@@H]5CO)O[C@@H]4CO)O[C@@H]3CO [ALFADEX]	Not Active	Not Active	Not Active	Not Active	Not Active	Not Active	Not Active	Not Active	Not Active	Not Active	Not Active							
